# How the values were obtained:
# Colitis in C57bI6 mice = experiment: Anti-murine colitis model (TNBS); format: in vivo
# Procedure: Colitis in C57bI6 mice is induced by administering TNBS (150 mg/kg) by oral gavage on day −3. Stool samples were taken 8 hours after administration. At day 0-5, N-acetylated E2 (30 mM) was administrated by oral gavage. On day 5, mice were analyzed to obtain a mortality macroscopic score (Wallace, Gastroenterology 96: 29-36, 1989).
# [1] = test system: human primary keratinocytes; experiment: MTT test on human primary keratinocytes; format: cell-based; conditions: 0.1-1-2 mM, 24 and 48 h; FIG. 5
# Procedure: To assess the possible toxic or cytostatic effect of the substances under study, a spectrophotometric test (MTT) was carried out. The human primary keratinocytes, isolated from skin biopsies, were plated in wells of a 24-well plate in suitable medium with addition of antibiotics, calcium, and specific growth factors. At around 70% confluence, the cells were exposed to the presence of Compound A, at various concentrations (0.1-1-2 mM), for 24 and 48 h in suitable medium with addition of antibiotics, calcium, but no growth factors. This culture condition was done for all the subsequent experiments. At the end of the treatment, the MTT test was done.
# TNF-alpha = experiment: Inhibition of TNF-alpha mRNA induction by H2O2 in keratinocytes (Real time RT-PCR); format: cell-based, human; conditions: H2O2 300 μM, 6 h, FIG. 6
# Procedure: Analysis of the inhibition of compound A of the mRNA induction of the proinflammatory cytokine TNF-alpha by H2O2 was carried out by Real time RT-PCR. The keratinocytes were plated in dishes of 6 cm/Ø. At 80% confluence, the cells were treated with H2O2 (300 μM) in presence of Compound A at the three concentrations (0.01-0.1-0.5 mM) for 6 h. At the end of the treatment, the cells were lysed in a lysis buffer and subjected to isolation and subsequent retrotranscription of the RNA. […] (FIG. 6)
# IL-6 [2] = experiment: Inhibition of IL-6 mRNA induction by IFN-γ in keratinocytes (Real time RT-PCR); format: cell-based, human; conditions: IFN-γ 30 ng/ml, 6 h; 0.01-0.1-0.5 mM; FIG. 7
# Procedure: Analysis of the inhibition by compound A of the mRNA induction of the proinflammatory cytokine IL-6 by IFN-γ was done through Real time RT-PCR. The keratinocytes were plated in dishes of 6 cm/Ø.
# At 80% confluence, the cells were treated with IFN-γ (30 ng/ml) in presence of compound A (N-Acetylged) at the three concentrations (0.01-0.1-0.5 mM) for 6 h.
# IL-6 [3] = experiment: Inhibition of IL-6 protein induction by LPS in keratinocytes (ELISA); format: cell-based, human; conditions: LPS 10 μg/ml, 24 h; 0.01-0.1-0.5 mM; FIG. 9
# Procedure: Analysis of the inhibition by Compound A of the protein induction of IL-6 by LPS (lipopolysaccharide) was done with the ELISA kit. The keratinocytes were plated in wells of a 24-well plate. At 80% confluence, the cells were treated with LPS (10 μg/ml) in presence of compound A at the three concentrations (0.01-0.1-0.5 mM) for 24 h. At the end of the treatment, the supernatant was decanted, centrifuged so as to remove any cell detritus, and kept at −80° C. until the time of the analysis. The quantity of IL-6 present in the supernatant was normalized by the protein concentration of the sample itself.
# sebocytes [4] = experiment: MTT test on human sebocytes; format: cell-based; conditions: 0.1-0.5-1-2 mM, 24 and 48 h; FIG. 10
# Procedure: To assess the possible toxic or cytostatic effect of the substances under study, a spectrophotometric test (MTT) was carried out. The sebocytes were plated in wells of a 24-well plate in suitable medium with addition of antibiotics, calcium and EGF. At roughly 70% confluence, the cells were exposed to the presence of compound A, in various concentrations (0.1-0.5-1-2 mM), for 24 and 48 h. At the end of the treatment, the MTT test was performed. […] (FIG. 10)
# sebocytes [5] = experiment: Sebogenesis induced by linoleic acid and testosterone, Nile Red Assay; format: cell-based, human; conditions: LA 10^-4M, TST 20 nM, compound 1 mM
# Procedure: Analysis of the inhibition by (compound A) of sebogenesis induced by treatment with linoleic acid (LA) and with testosterone (TST) was evaluated by spectrofluorimetry, using Nile Red as selective marker of intracellular lipids (Nile Red Assay). The sebocytes were plated in wells of a 24-well plate. Next day, they were deprived of serum (2%) and after 24 h they were stimulated, for another 24 h, with LA (10^-4M), TST (20 nM) in presence or in absence of A (1 mM). At the end of the treatment, the sebocytes were stained with Nile Red. The quantitative analysis was done by spectrofluorimetry, which made it possible to distinguish between neutral lipids and polar lipids based on the different wavelength of excitation and emission. […] (FIG. 11).
# Analysis of the inhibition by compound A of sebogenesis induced by treatment with linoleic acid (LA) and with testosterone (TST) was evaluated by spectrofluorimetry, using Nile Red as selective marker of intracellular lipids (Nile Red Assay). The sebocytes were plated in wells of a 24-well plate. […] The quantitative analysis was done by spectrofluorimetry, which made it possible to distinguish between neutral lipids and polar lipids based on the different wavelength of excitation and emission.
# sebocytes [6] = experiment: Sebogenesis induced by LA and TST, fatty acids and squalene by GC-MS; format: cell-based, human; conditions: compound 1 mM
# Procedure: In order to evaluate in greater detail the inhibition by Compound A of sebogenesis induced by LA and TST, assays were performed on the lipid extract of the sebocytes using gas chromatography coupled with mass spectrometry (GC-MS). The sebocytes were treated by the scheme described for the Nile Red assay. At the end of the treatment, the cells were removed and then the lipid extraction was done by using organic solvents. One part of the extract was used to analyze the fatty acid composition, while the other part was used for the determination of the quantity of squalene, a lipid characteristic of sebum. […] (FIG. 12B)
smiles,measurement,setting,value
"CO[C@H](Cc1ccc(NC(C)=O)cc1)C(=O)O [Compound A, N-acetyl-(R)-(−)-3-(4-aminophenyl)-2-methoxypropionic acid]",% mortality,"Colitis in C57bI6 mice; TNBS 150 mg/kg oral gavage day -3, N-acetylated E2 30 mM oral gavage day 0-5, versus TNBS alone, FIG. 1",comparable
same,MPO (myleoperoxidase) activity,"Colitis in C57bI6 mice; TNBS + N-acetyl E2 30 mM oral gavage versus TNBS alone, FIG. 3",decreased
same,colonic inflammation (Ameho score),"Colitis in C57bI6 mice; TNBS + N-acetyl E2 30 mM oral gavage versus TNBS alone, FIG. 4",colonic inflammation had decreased
same,level of colonic lesions (Wallace macroscopic score),"Colitis in C57bI6 mice; TNBS + N-acetyl E2 30 mM oral gavage versus TNBS alone, day 5, FIG. 2",significantly less
same,cellular vitality (MTT),[1],did not show any effect on cellular vitality
same,"inhibition of expression of mRNA of TNF-α induced by H2O2, higher dose","TNF-alpha; higher dose (0.5 mM), effect similar to troglitazone",complete inhibition
same,inhibition of expression of mRNA of TNF-α induced by H2O2,TNF-alpha; two higher doses (0.1 mM; 0.5 mM),able to inhibit
same,inhibition of mRNA expression of IL-6 induced by IFN-γ,IL-6 [2],inhibit the expression of the inflammatory cytokine induced by presence of IFN-γ which does not appear to be dose-dependent
same,inhibition of protein expression of IL-6 induced by LPS,IL-6 [3],"inhibit, in dose-dependent manner"
same,cell vitality (MTT),sebocytes [4],no effects on cell vitality
same,"inhibition of sebogenesis (intracellular lipids, Nile Red)","sebocytes [5]; 24 h, FIG. 11, FIG. 13",able to reduce the lipidogenic stimulus
same,influence of times of treatment on inhibition of sebogenesis (Nile Red),sebocytes [5]; FIG. 13,No differences were observed
same,fatty acid assay of lipid extract (lipidogenic stimulus),sebocytes [6]; FIG. 12A,reduced
same,squalene analysis of lipid extract,sebocytes [6]; FIG. 12B,confirmed

# — patent US10137101B2, “Alkylamido compounds and uses thereof” (Nogra Pharma Limited, priority 2009, dated 2018)
